From patent US4340725A (priority 1979, dated 1982)
In brackets after ≈: the same amount, converted by molar mass.

How the values were obtained:
Sarcoma 180 solid tumor = assay: Effect on sarcoma 180 solid tumor; assay type: in vivo, ddY-strain mice; settings: 7 days after implantation
Protocol: Six male ddY-strain mice having a weight of about 20 g are used for each group as test animals; and 5×10^6 cells of Sarcoma 180 ascites tumor are implanted subcutaneously in the animals. After 24 hours following implantation, 0.2 ml phosphate buffered saline (PBS) containing DC-38-V in various concentrations is administered intraperitoneally.
Then the suspension is diluted with PBS to obtain suspensions having various concentrations of test compound.
As a control, PBS solution containing Tween 80 is used. The test animals are not affected by the control solution. PBS comprises 0.8 g/dl NaCl, 0.02 g/dl KCl, […] Na2 HPO4, and 0.02 g/dl KH2 PO4 (pH 7.2).
(§1) For comparison, 0.2 ml PBS solution containing mitomycin C is administered to a group of animals intraperitoneally at the same time as the test compound.
Seven days after implantation, the average tumor volume (mm^3) and T/C (T: average tumor volume of the group treated with the test compound, C: that of control) are determined.

[1] = system: Lymphocytic leukemia P-388 tumor; assay: Effect on Lymphocytic leukemia P-388 tumor; assay type: in vivo, CDF1 mice
Protocol: Five male CDF1 mice having a weight of about 22 g are used for each group as test animals; and 1×10^6 cells of Lymphocytic leukemia P-388 tumor are implanted intraperitoneally in the test animals. Twenty-four hours following implantation, 0.2 ml PBS solution containing DC-38-V in various concentrations is administered intraperitoneally.
For comparison, 0.2 ml PBS solution containing mitomycin C is administered to a group of test animals intraperitoneally at the same time as the test compound.

MH 134 ascites tumor = assay: Effect on MH 134 ascites tumor; assay type: in vivo, C3H-strain mice; settings: for Long term survivors (LTS): ≥40 days
Protocol: (§2) Six male C3H-strain mice having a weight of about 20 g are used for each group as test animals; and 5×10^6 cells of MH 134 ascites tumor are implanted in the animals intraperitoneally. After 24 hours following implantation, 0.2 ml PBS suspension containing DC-38-V in various concentrations is administered intraperitoneally.
as §1

[2] = system: Ehrlich ascites carcinoma; assay: Effect on Ehrlich ascites carcinoma; assay type: in vivo, ddY-strain mice; settings: for LTS: ≥60 days
Protocol: as §2, with “Five” for “Six”, “ddY-strain” for “C3H-strain”, “Ehrlich” for “MH 134”, “carcinoma” for “tumor”, “following implantation or once a day for five days from 24 hours after” for “following”
For comparison, mitomycin C is used as test compound.

Solubility of DC-38-V = assay type: physicochemical
[3] = Stability (solid; acidic, neutral, alkaline liquid; sun light or shielding); assay type: physicochemical
From the text: The stability of compound is illustrated in Table 1.

[4] = system: Bacillus subtilis No. 10707; assay: in vitro antibacterial spectra, agar dilution method (pH 7.0); assay type: cell-based; settings: read-out: Minimum Inhibitory Concentration (MIC)
From the text: (§3) The in vitro antibacterial spectra of DC-38-V determined by the agar dilution method (pH 7.0) is illustrated in the following Table 7.

Escherichia coli ATCC 26 = assay: as above; assay type: cell-based; settings: ATCC26, read-out: Minimum Inhibitory Concentration (MIC)
From the text: as §3

[5] = system: Klebsiella pneumoniae ATCC 10031; assay: as above; assay type: cell-based; settings: ATCC10031, read-out: Minimum Inhibitory Concentration (MIC)
From the text: as §3

[6] = system: Salmonella typhosa ATCC 9992; assay: as above; assay type: cell-based; settings: Salmonella enterica, read-out: Minimum Inhibitory Concentration (MIC)
From the text: as §3

[7] = system: Shigella sonnei ATCC 9290; assay: as above; assay type: cell-based; settings: ATCC9290, read-out: Minimum Inhibitory Concentration (MIC)
From the text: as §3

[8] = system: Staphylococcus aureus ATCC 6538 P; assay: as above; assay type: cell-based; settings: ATCC6538, read-out: Minimum Inhibitory Concentration (MIC)
From the text: as §3

acute toxicity = settings: mouse, in vivo, ip; mice, intraperitoneally
Protocol: The acute toxicity (LD50) of DC-38-V is >1000 mg/kg when the test compound is administered intraperitoneally to mice.

[9] = 25 × 5 mg/kg i.p., once a day for five days
[10] = 50 × 5 mg/kg i.p., once a day for five days
[11] = 100 × 5 mg/kg i.p., once a day for five days

## CO[C@@]12[C@H](COC(N)=O)C3=C(C(=O)C(C)=C(N)C3=O)N1C[C@@H]1N[C@@H]12 [Mitomycin C, mitomycin C, reference compound]
Sarcoma 180 solid tumor; 4.2 mg/kg i.p.
  T/C (average tumor volume): 0.37
  average tumor volume (V): 529 mm^3
[1]; 4.2 mg/kg i.p.
  increased life span (ILS): 160%
  mean survival time (MST): 16.5 days
MH 134 ascites tumor; 1.05 mg/kg i.p.
  ILS: 106%
  MST: 18.1 days
  Long term survivors (LTS): 0/6
MH 134 ascites tumor; 2.1 mg/kg i.p.
  ILS: 116%
  MST: 19.8 days
  Long term survivors (LTS): 0/6
MH 134 ascites tumor; 4.2 mg/kg i.p.
  ILS: 120%
  MST: 20.5 days
  Long term survivors (LTS): 0/6
MH 134 ascites tumor; 8.4 mg/kg i.p.
  ILS: 55%
  MST: 9.4 days
  Long term survivors (LTS): 0/6
[2]; 2.1 × 1 mg/kg
  ILS: 122%
  MST: 18.6 days
  LTS: 0/5
[2]; 4.2 × 1 mg/kg
  ILS: > 203%
  MST: > 30.8 days
  LTS: 1/5
[2]; 5.6 × 1 mg/kg
  ILS: 122%
  MST: 18.6 days
  LTS: 0/5

## C=Cc1cc(OC)c2c(c1)c(=O)oc1c2cc(OC)c2c(O)ccc(C3OC(C(C)O)C(O)C3O)c21 (stereo not shown) [DC-38-V]
Solubility of DC-38-V; acetone
  Solubility: slightly soluble
Solubility of DC-38-V; benzene
  Solubility: slightly soluble
Solubility of DC-38-V; chloroform
  Solubility: slightly soluble
Solubility of DC-38-V; dimethylformamide
  Solubility: soluble
Solubility of DC-38-V; dimethylsulfoxide
  Solubility: soluble
Solubility of DC-38-V; ether
  Solubility: almost insoluble
Solubility of DC-38-V; ethyl acetate
  Solubility: slightly soluble
Solubility of DC-38-V; methanol
  Solubility: slightly soluble
Solubility of DC-38-V; petroleum ether
  Solubility: almost insoluble
Solubility of DC-38-V; pyridine
  Solubility: soluble
Solubility of DC-38-V; tetrahydrofuran
  Solubility: soluble
Solubility of DC-38-V; water
  Solubility: almost insoluble
[3]; Liquid acidic, shielding
  Stability: stable
[3]; Liquid alkaline, shielding
  Stability: unstable
[3]; Liquid alkaline, sun light
  Stability: unstable
[3]; Liquid neutral, shielding
  Stability: stable
[3]; Solid, shielding
  Stability: stable
[3]; Solid, sun light
  Stability: unstable
[4]
  MIC: 0.0375 µg/mL (≈ 0.0758 µM)
Escherichia coli ATCC 26
  MIC: 18.8 µg/mL (≈ 37.9 µM)
[5]
  MIC: > 75 µg/mL
[6]
  MIC: > 75 µg/mL
[7]
  MIC: > 75 µg/mL
[8]
  MIC: 0.0375 µg/mL (≈ 0.0758 µM)
Acute toxicity
  LD50: > 1000 mg/kg
Sarcoma 180 solid tumor; 100 mg/kg i.p.
  T/C (average tumor volume): 0.76
  average tumor volume (V): 1,085 mm^3
Sarcoma 180 solid tumor; 200 mg/kg i.p.
  T/C (average tumor volume): 0.62
  average tumor volume (V): 874 mm^3
Sarcoma 180 solid tumor; 400 mg/kg i.p.
  T/C (average tumor volume): 0.40
  average tumor volume (V): 562 mm^3
[1]; 50 mg/kg i.p.
  increased life span (ILS): 138%
  mean survival time (MST): 13.4 days
[1]; 100 mg/kg i.p.
  increased life span (ILS): 141%
  mean survival time (MST): 14.5 days
[1]; 200 mg/kg i.p.
  increased life span (ILS): 155%
  mean survival time (MST): 16.0 days
[1]; 400 mg/kg i.p.
  increased life span (ILS): 162%
  mean survival time (MST): 16.7 days
MH 134 ascites tumor; 100 mg/kg i.p.
  ILS: > 184%
  MST: > 31.5 days
  Long term survivors (LTS): 3/6
MH 134 ascites tumor; 200 mg/kg i.p.
  ILS: > 310%
  MST: > 53.0 days
  Long term survivors (LTS): 6/6
MH 134 ascites tumor; 400 mg/kg i.p.
  ILS: > 231%
  MST: > 39.5 days
  Long term survivors (LTS): 2/6
[2]; [9]
  ILS: > 315%
  MST: > 49.8 days
  LTS: 3/5
[2]; 50 × 1 mg/kg i.p.
  ILS: 114%
  MST: 17.4 days
  LTS: 0/5
[2]; [10]
  ILS: > 358%
  MST: > 56.6 days
  LTS: 4/5
[2]; 100 × 1 mg/kg i.p.
  ILS: > 202%
  MST: > 30.6 days
  LTS: 1/5
[2]; [11]
  ILS: > 380%
  MST: > 60 days
  LTS: 5/5
[2]; 200 × 1 mg/kg i.p.
  ILS: > 264%
  MST: > 40.2 days
  LTS: 2/5
[2]; 400 × 1 mg/kg i.p.
  ILS: > 275%
  MST: > 41.8 days
  LTS: 2/5
